Positions of bridges follow the written chain, without caps; N, C: chain ends. Chains are numbered I, II in the order given. No end group written: not given here.
How the values were obtained:
[1] = tested on: IL-6; assay: Interleukin-6 production of splenocyte of LP-BM5-infected mice; type: in vivo, C57BL/6 mice; conditions: 200 μg/mouse, mitogen-stimulated splenocytes, vs infected saline group
Description: FIG. 7. Interleukin-6 production of splenocyte. […] “a” indicates significant differences at p<0.05 compared with uninfected saline treatment group. “b” indicates significant differences at p<0.05 compared with infected saline treatment group.
(§1) Female C57BL/6 mice, four weeks old, were obtained from the Charles River Laboratories Inc. (Wilmington, Del.). Animals were cared for as required by the University of Arizona Committee on Animal Research. After two weeks housing in the Central Animal Facility, University of Arizona, they were randomly assigned to one of the following treatment groups: uninfected normal mice (four mice); LP-BM5-infected mice treated with saline (pyrogen free; six mice); LP-BM5-infected mice treated with 200 μg TCR Vβ3 monomer peptide (six mice); LP-BM5-infected mice treated with 200 μg TCR Vβ3 dimer peptide (six mice). […] Intraperitoneal administration of monomer and dimer peptides (dissolved in saline) was performed two and six weeks after LP-BM5 infection. Infection to of these mice with LP-BM5 retrovirus leads to the rapid induction of clinical symptoms with virtually no latent phase.

[2] = tested on: IL-4; assay: Interleukin-4 production of splenocyte of LP-BM5-infected mice; type: in vivo, C57BL/6 mice; conditions: 200 μg/mouse, mitogen-stimulated splenocytes, vs infected saline group
Description: FIG. 6. Interleukin-4 production of splenocyte. […] “a” indicates significant differences at P<0.05 compared with uninfected saline treatment group, “b” indicates significant differences at P<0.05 compared with infected saline treatment group.
as §1

[3] = tested on: splenocyte T cells; assay: Con A-stimulated splenocyte proliferation (T cells) of LP-BM5-infected mice; type: in vivo, C57BL/6 mice; conditions: 200 μg/mouse, vs infected saline group
Description: FIG. 2. Con A-stimulated splenocyte proliferation. […] “a” indicates significant differences at p<0.05 compared with uninfected saline treatment group. “b” indicates significant differences at p<0.05 compared with infected saline treatment group.
as §1

[4] = tested on: LP-BM5 retrovirus; assay: Spleen weight in LP-BM5 retrovirus-infected mice; type: in vivo, C57BL/6 mice; conditions: 200 μg peptide intraperitoneally two and six weeks after infection, relative to untreated infected animals
Description: FIG. 1. Spleen weight. The spleen weights were substantially (p<0.05) elevated in the infected mice relative to the uninfected animals. […] “a” indicates significant differences at p<0.05 compared with uninfected saline treatment.
as §1

[5] = tested on: IFN-γ; assay: IFN-γ production of splenocyte of LP-BM5-infected mice; type: in vivo, C57BL/6 mice; conditions: 200 μg/mouse, vs infected saline group
Description: FIG. 5. IFN-γ production of splenocyte. […] “a” indicates significant differences at P <0.05 compared with uninfected saline treatment group. “b” indicates significant differences at P<0.05 compared with infected saline treatment group.
as §1

[6] = tested on: splenocyte B cells; assay: LPS-stimulated splenocyte proliferation (B cells) of LP-BM5-infected mice; type: in vivo, C57BL/6 mice; conditions: 200 μg/mouse, vs infected saline group
Description: FIG. 3. LPS-stimulated splenocyte proliferation. […] “a” indicates significant differences at p<0.05 compared with uninfected saline treatment group. “b” indicates significant differences at […] compared with infected saline treatment group.
as §1

[7] = Immunomodulatory effects of homologs of the β3 peptide
[8] = tested on: IL-2; assay: IL-2 production of splenocyte of LP-BM5-infected mice; type: in vivo, C57BL/6 mice; conditions: 200 μg/mouse, vs infected saline group
Description: FIG. 4. IL-2 production of splenocyte. […] “a” indicates significant differences at p<0.05 compared with uninfected saline treatment group. “b” indicates significant differences at p<0.05 compared with infected saline treatment group.
as §1

[9] = tested on: aged mice; conditions: injection of peptide, not highly dimerised; cited from earlier work

Substance	Interleukin-6 production of splenocyte [1]	Interleukin-4 production of splenocyte [2]	Interleukin-4 production of splenocyte ([2]; listed as Vβ3 peptide dimers)	Con A-stimulated splenocyte proliferation (T-cell proliferation) [3]	Con A-stimulated splenocyte proliferation (T-cell proliferation) ([3]; listed as Vβ3 peptide dimers)	Spleen weight (splenomegaly) [4]	Spleen weight (splenomegaly) ([4]; listed as Vβ3 peptide dimers)	IFN-γ production of splenocyte [5]	IFN-γ production of splenocyte ([5]; listed as Vβ3 peptide dimers)	LPS-stimulated splenocyte proliferation (B cell proliferation) [6]	LPS-stimulated splenocyte proliferation (B cell proliferation) ([6]; listed as Vβ3 peptide dimers)	Immunomodulatory effects compared with the β3 peptide [7]	IL-2 production of splenocyte [8]	Immunosenescence [9]
TCR Vβ3 dimer: homodimer of two SEQ ID NO:1 peptide monomers, formed through a disulphide bond at the N-terminal cysteine (chain 1 CKPISGHNSLFWYRQT; chain 2 CKPISGHNSLFWYRQT; disulfide I:1-II:1)	at least as effective as the monomer	significantly (p<0.05) normalized IL-4	at least as effective as the monomer	significantly (p<0.05) prevented the suppression of T-cell proliferation	at least as effective as the monomer	significant reduction in spleen weight	at least as effective as the monomer	significantly (p<0.05) normalized IFN-γ production	at least as effective as the monomer	significantly (p<0.05) prevented the suppression of T-cell proliferation	at least as effective as the monomer	–	–	–
C S P K S G H D T V S W Y Q Q A (CSPKSGHDTVSWYQQA) [Pep Vβ5.2]	–	–	–	–	–	–	–	–	–	–	–	Active	–	–
CKPISGHNSLFWYRQT [TCR Vβ3 monomer, 16-mer TCR Vβ CDR1 peptide of T-cell receptor β chain clone YT35, monomer form, reference compound]	significantly (p<0.05) normalized IL-6	–	–	significantly (p<0.05) prevented the suppression of T-cell proliferation	–	significant reduction in spleen weight	–	significantly (p<0.05) normalized IFN-γ production	–	significantly (p<0.05) prevented the suppression of T-cell proliferation	–	–	significantly (p<0.05) normalized IL-2 production	reduces immunosenescence in aged mice

— patent US7998926B2, “Dimerized T-cell receptor fragment, its compositions and use” (The Arizona Boad of Regents on Behfl of the University of …, priority 2001, dated 2011)
